Results taken from patent publication US20250205317A1, “METHODS AND COMPOSITIONS FOR THE TREATMENT OF STROKE” (University of Maryland, Baltimore, priority 2022, published 2025).
Entries after “also recorded” stand apart in the source; their conditions may differ.

Legend:
[1] = system: C57BL/6 mice, MCAo and reperfusion; assay: 2-hour MCAo followed by 24 hours reperfusion, infarct volume and reperfusion edema (Example 2); format: in vivo, mouse; conditions: 0.07 mg/kg IV at reperfusion
Protocol: A,B: Edema, measured as percent hemispheric swelling, vs. TTC infarct volume following 2 hour MCAo and 24 hour reperfusion; data are shown for C57BL/6 mice treated upon reperfusion with vehicle (empty circles) vs. the SGLT2 inhibitor, canagliflozin (filled squares; 0.07 mg/kg IV). Note the significant downward shift in the regression line, signifying reduced coupling between reperfusion edema and infarct volume.
The known variability in the brain damage caused by ischemia in C57BL/6 mice was leveraged (Knauss, et al., Frontiers in Neuroscience 2020) to quantify the relationship between reperfusion edema and infarct volume, under both control conditions and with SGLT2 inhibition. Mice underwent 2-hour MCAo followed by 24 hours reperfusion. At 2 hours, at the time of reperfusion, mice were randomly assigned to receive either vehicle control or canagliflozin (0.07 mg/kg IV). At 24 hours, the brains were evaluated for infarct volume using 2,3,5-triphenyltetrazolium chloride (TTC) (Khan, et al., Evaluation of an optimal temperature for brain storage in delayed 2, 3,5-triphenyltetrazolium chloride staining, J. Neurosci. Methods 2000, 98:43-47), and the hemisphere volume was quantified as a measure of reperfusion edema. McBride, et al., Correcting for Brain Swelling's Effects on Infarct Volume Calculation After Middle Cerebral Artery Occlusion in Rats, Transl. Stroke Res. 2015, 6:323-338. […]

[2] = Serum glucose before and after canagliflozin administration (Example 3); format: in vivo, mouse; conditions: 0.07 mg/kg IV; compared to baseline / vehicle; 5 mice/group
Protocol: Drugs of the gliflozin class are used in patients with diabetes mellitus to lower serum glucose. To control for the possibility that the effect of canagliflozin was mediated by a reduction in serum glucose, we measured serum glucose at various times before and after canagliflozin (0.07 mg/kg IV) administration.

C57BL6 mice, MCAo/R = assay: MCAo/R (2/24 hours): infarct volume, hemispheric swelling, brain water, Garcia score (Example 4); format: in vivo, mouse
[3] = Blood glucose at reperfusion and at euthanasia by glucometer (Example 4); format: in vivo, mouse; conditions: non-diabetic mice; 200 μg/kg IV; 5-7 mice/group
[4] = system: astrocytes (SGLT2 activated by glucose); assay: Astrocyte cell volume in ex vivo MCAo/R brain slices after glycemic challenge; format: cell-based, mouse; conditions: ipsilateral brain slices, MCAo/R 2/6 hours; step change 2 to 10 mM glucose; 5 μM
[5] = system: rat model with type 1 diabetes mellitus and bilateral ischemia; conditions: 30-minute bilateral ischemia; cited from earlier work
[6] = system: patients with or without T2DM; conditions: long-term use, regardless of T2DM; cited from earlier work
[7] = 200 μg/kg IV at reperfusion, mean ± S.E.

SMILES | infarct volume (TTC) [1] | reperfusion edema (percent hemispheric swelling) relative to infarct volume ([1]; shift in Deming regression p<0.0001) | serum glucose [2] | neurological function, Garcia score (median) (C57BL6 mice, MCAo/R; 200 μg/kg IV) | hemispheric swelling (C57BL6 mice, MCAo/R; [7]) [%] | infarct volume (C57BL6 mice, MCAo/R; [7]) [mm^3] | maximum hemispheric swelling (YM) from exponential fit (C57BL6 mice, MCAo/R; 200 μg/kg IV, fit to Eq. 1) [%] | ipsilateral brain water (C57BL6 mice, MCAo/R; 200 μg/kg IV, wet weight/dry weight method) | blood glucose at 24 hours [3] [mg/dL] | blood glucose at reperfusion [3] [mg/dL] | glucose-induced changes in astrocyte volume [4] | blood glucose [5] | infarct volume [5] | progression of kidney disease [6] | risk of death from cardiovascular disease [6]
Cc1ccc([C@@H]2O[C@H](CO)[C@@H](O)[C@H](O)[C@H]2O)cc1Cc1ccc(-c2ccc(F)cc2)s1 [canagliflozin] | 63.1±8.0 % of hemisphere | reduced at all infarct volumes | remained euglycemic; also recorded: not affected | 8 | 15.7±1.0 | 87.7±6.7 | 17.9 | 82.3±0.4 | 146 ± 10 | 175 ± 10 | completely blocked | – | – | – | –
OC[C@H]1O[C@@H](c2ccc(Cl)c(Cc3ccc(O[C@H]4CCOC4)cc3)c2)[C@H](O)[C@@H](O)[C@@H]1O [empagliflozin] | – | – | – | – | – | – | – | – | – | – | – | reduced blood glucose | reduced blood glucose as well as infarct volume | slows the progression of kidney disease | reduces the risk of death from cardiovascular disease
